From patent US20260083677A1, “ACTIVE INGREDIENT CONTAINING STABILISED SOLID MEDICINAL FORMS AND METHODS FOR THE PRODUCTION THEREOF” (ASTELLAS PHARMA INC., priority 2006, published 2026)

What was measured:
Format in all cases: physicochemical
[1] = drying loss determination on a drying balance; conditions: for drying loss at 130° C./30 min: substances dried at 130° C. for 5 hours (sorbitol: 70° C.)
Experimental: drying loss in %=mass of the water in the sample/total mass of the sample×100
In order to determine the drying loss of a sample (e.g. a solid medicinal form), the sample is spread over a so-called drying balance and (e.g. by an accurately working infrared radiator) adjusted to the desired temperature, e.g. of 105° C. After a certain time (e.g. after 20 or 30 minutes), the drying loss due to the evaporation of water is directly read off the balance in percent. Unless otherwise specified in this application, the expression “drying loss” refers to the drying loss determined under the conditions of 105° C./30 min. A suitable device for measuring of the drying loss is the Moisture Analyzer HR83 of Mettler-Toledo company (CH-8606 Greifensee, Switzerland). The device or the drying balance is preferably used in a closed interior having an ambient temperature of 20° C. and 20% relative humidity.

[2] = relative equilibrium moisture content in sealed measuring cell (HygroLab, AWVC cell); conditions: for equilibrium moisture: substances dried at 130° C. for 5 hours (sorbitol: 70° C.)
Experimental: In connection with the present invention it is, however, very important to have a method furnishing information on the bonding mechanism of water and the strength of the water bond. For this purpose, the so-called “relative equilibrium moisture content” (hereinafter also abbreviated as “equilibrium moisture content”) is measured which forms on the sample in a fully sealed measuring cell at a certain temperature. It is also referred to as equilibrium activity or water activity. The water activity describes the bond strength of water to the active ingredient and/or the individual components of the active ingredient mixture. The measured value for the water activity and/or for the equilibrium moisture (Equilibrium Relative Humidity) has a decisive influence on the chemical stability of a moisture-sensitive active ingredient which is embedded in a solid form, such as granules, a capsule or tablet.
The equilibrium moisture content is the value of the relative humidity in which a hygroscopic product can be stored without a net moisture exchange taking place between the product and its environment. Thus, if a solid form has an equilibrium moisture content of 10% and is stored at a relative humidity of 15%, it absorbs water from its environment, if the relative moisture of the environment is below 10%, the solid form releases water to its environment and becomes even drier.
Unless otherwise specified, the equilibrium moisture content is determined as follows in a thermostated small, tightly sealed measuring cell having a volume of about 50 ml. In the upper part of this measuring cell there is a sensor which can measure the relative moisture content resulting from the evaporation of water from the sample to be measured (the device HygroLab having the AWVC measuring cell of Rotronic company, CH 8303 Bassersdorf, Switzerland, is used) The device is officially calibrated and the measuring inaccuracy is no more than +1% relative humidity or +0.3° C. The measuring accuracy can be repeated at any time with standardized salt solutions as known to the person skilled in the art. The measurement takes place at 25° C.

[3] = weight increase on storage at 25° C./15% relative humidity over 27 days; conditions: substances dried at 130° C. for 5 hours (sorbitol: 70° C.)
Experimental: The substances were dried at 130° C. for 5 hours (sorbitol: 70° C.) and the drying loss was determined. Then, the weight increase of the individual substances was determined at 25° C./15% relative humidity over 27 days.

[4] = removal of water of crystallization from amoxicilline trihydrate by a drying agent in a tightly sealing glass vessel
Experimental: In a tightly sealing glass vessel, two Arcellas having 3.5 g trimagnesium dicitrate, dried at 130° C., or having 1.264 g amoxicilline trihydrate (water content 13.1%) are placed side by side and stored at 25° C. After 14 days, the weight of amoxicilline is only 1,105 g whereas the weight of trimagnesium dicitrate is 3.66 g. The amoxicilline released 12.6% water of crystallization which was absorbed by the drying agent. The new drying agent is active such that it virtually split off the entire water of crystallization of amoxicilline (theoretical value: 12.9%).
If this experiment is repeated with the known drying agent silica gel, the antibiotic only loses 0.1% weight after 25 days. This means that the dried trimagnesium dicitrate according to the invention represents an extremely potent drying agent.
Under precisely equal test conditions, the amoxicilline only loses 9.0% with calcium chloride dried at 130° C. after 26 days/25° C.

[5] = measuring cell thermostated to 25° C.
[6] = measured at 150° C./30 min, after drying at 130° C. for several hours
[7] = after drying at 130° C. for several hours

O=C(O)CC(O)(CC(=O)O)C(=O)O [citric acid]
drying loss ([1]; measured at 70° C./30 min): 0.2%
equilibrium moisture content [2, 5]: 63%

O=C([O-])CC(O)(CC(=O)[O-])C(=O)[O-].O=C([O-])CC(O)(CC(=O)[O-])C(=O)[O-].[Mg+2].[Mg+2].[Mg+2] [trimagnesium dicitrate]
drying loss [1, 6]: 1.6%
drying loss at 130° C./30 min [1]: 0.2
equilibrium moisture content [2, 7]: < 0.5%
equilibrium moisture content ([2]; after drying at 130° C. for several hours, at 25° C.): 0.6%
equilibrium moisture [2]: < 1%
weight increase (%) with storage at 15% relative humidity/25° C. [3]: 8.6%
weight of trimagnesium dicitrate after storage ([4]; 3.5 g at start, dried at 130° C., beside amoxicilline trihydrate, 14 days, 25° C.): 3.66 g

[Ca+2].[Cl-].[Cl-] [calcium chloride]
drying loss [1, 6]: 3.4%
drying loss at 130° C./30 min [1]: 0.02
equilibrium moisture content [2, 7]: < 0.5%
equilibrium moisture [2]: < 1%
weight increase (%) with storage at 15% relative humidity/25° C. [3]: 45.9%

CC1(C)S[C@@H]2[C@H](NC(=O)[C@H](N)c3ccc(O)cc3)C(=O)N2[C@H]1C(=O)O [amoxicilline, amoxicilline trihydrate]
weight of amoxicilline after storage ([4]; 1.264 g at start, beside 3.5 g dried trimagnesium dicitrate, 14 days, 25° C.): 1,105 g
weight loss ([4]; drying agent calcium chloride dried at 130° C., after 26 days/25° C.): 9.0%
weight loss ([4]; drying agent silica gel, after 25 days): 0.1%
water of crystallization released ([4]; drying agent trimagnesium dicitrate dried at 130° C., 14 days, 25° C.): 12.6%

OC[C@@H](O)[C@@H](O)[C@H](O)[C@@H](O)CO [sorbitol]
drying loss at 130° C./30 min [1]: 0.1
equilibrium moisture [2]: 9%
weight increase (%) with storage at 15% relative humidity/25° C. [3]: 0.1%

O=S(=O)([O-])[O-].[Na+].[Na+] [Sodium sulfate, reference compound]
drying loss at 130° C. ([1]; testing period 30 min): 0.06%
equilibrium moisture content [2, 5]: 32.7%
